Measured values from patent US8460669B2, “Compositions and methods for identifying response targets and treating flavivirus infection responses” (Academia Sinica, priority 2005, dated 2013).

Tests used:
KCR.Fc = biological target: T1, KCR.Fc (Mus musculus, UniProt P70194); experiment: Immunosorbent dot binding assay with KCR.Fc; details: polysaccharide immobilized on PVDF membrane; receptor.Fc 1 μg/mL
T1 construct: the extracellular domains of DVLR1/CLEC5A (MDL-1), Dectin-1, KCR, and DC-SIGN (as a positive control) were fused to the Fc portion of human IgG1; made in house; host or cells: 293-F (FreeStyle 293) cells
T1 sequence (P70194 70-548 limits assumed): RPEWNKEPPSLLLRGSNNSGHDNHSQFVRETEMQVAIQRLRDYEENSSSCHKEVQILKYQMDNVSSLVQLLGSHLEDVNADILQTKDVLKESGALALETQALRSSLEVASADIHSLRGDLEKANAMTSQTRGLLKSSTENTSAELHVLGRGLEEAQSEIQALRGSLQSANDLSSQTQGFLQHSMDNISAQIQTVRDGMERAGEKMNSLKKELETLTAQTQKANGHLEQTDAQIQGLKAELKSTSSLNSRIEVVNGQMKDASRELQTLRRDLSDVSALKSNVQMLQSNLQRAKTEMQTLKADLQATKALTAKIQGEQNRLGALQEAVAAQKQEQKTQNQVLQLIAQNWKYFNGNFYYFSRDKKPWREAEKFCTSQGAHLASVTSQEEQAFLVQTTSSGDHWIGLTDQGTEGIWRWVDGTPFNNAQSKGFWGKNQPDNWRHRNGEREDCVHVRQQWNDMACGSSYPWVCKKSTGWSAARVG

DC-SIGNR.Fc = biological target: T2, DC-SIGNR.Fc (Homo sapiens, UniProt Q9H2X3); experiment: Immunosorbent dot binding assay with DC-SIGNR.Fc; details: polysaccharide immobilized on PVDF membrane; receptor.Fc 1 μg/mL
T2 construct: The extracellular domains of lectin receptors, TREMs and TLTs were cloned by the reverse-transcriptase polymerase chain reaction (RT-PCR); made in house; host or cells: 293-F (FreeStyle 293) cells
T2 sequence (Q9H2X3 71-399): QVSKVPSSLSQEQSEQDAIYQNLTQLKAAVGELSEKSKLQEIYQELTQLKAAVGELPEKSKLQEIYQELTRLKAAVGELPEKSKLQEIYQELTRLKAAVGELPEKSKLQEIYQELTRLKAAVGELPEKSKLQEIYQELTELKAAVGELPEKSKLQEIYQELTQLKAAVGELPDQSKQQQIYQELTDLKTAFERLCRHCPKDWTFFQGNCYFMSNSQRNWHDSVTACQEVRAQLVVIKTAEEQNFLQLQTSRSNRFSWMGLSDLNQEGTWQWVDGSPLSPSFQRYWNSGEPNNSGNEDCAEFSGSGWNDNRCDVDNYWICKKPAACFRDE

interaction with KCR.Fc in dot-binding assay (KCR.Fc): only Dectin-1.Fc can bind | interaction with DC-SIGNR.Fc in dot-binding assay (DC-SIGNR.Fc): only Dectin-1.Fc can bind
Substance: β-1,3-glucan [b-glucan]
